Measured values reported in paper PMC4096627 (Bioorganic & medicinal chemistry, 2014).
Structures can show the parent of a compound that is named as a salt.

How the values were obtained:
Dopamine Receptor D5 = Dopamine Receptor D5 (Homo sapiens, UniProt P21918); assay: NIMH-PDSP binding affinity at dopamine receptor subtype D5; settings: for primary assay inhibition at D5: primary assay threshold
Dopamine Receptor D1 = Dopamine Receptor D1 (Homo sapiens, UniProt P21728); assay: NIMH-PDSP binding affinity at dopamine receptor subtype D1; settings: for primary assay inhibition at D1: primary assay threshold
Sequence of Dopamine Receptor D1 (P21728 whole entry): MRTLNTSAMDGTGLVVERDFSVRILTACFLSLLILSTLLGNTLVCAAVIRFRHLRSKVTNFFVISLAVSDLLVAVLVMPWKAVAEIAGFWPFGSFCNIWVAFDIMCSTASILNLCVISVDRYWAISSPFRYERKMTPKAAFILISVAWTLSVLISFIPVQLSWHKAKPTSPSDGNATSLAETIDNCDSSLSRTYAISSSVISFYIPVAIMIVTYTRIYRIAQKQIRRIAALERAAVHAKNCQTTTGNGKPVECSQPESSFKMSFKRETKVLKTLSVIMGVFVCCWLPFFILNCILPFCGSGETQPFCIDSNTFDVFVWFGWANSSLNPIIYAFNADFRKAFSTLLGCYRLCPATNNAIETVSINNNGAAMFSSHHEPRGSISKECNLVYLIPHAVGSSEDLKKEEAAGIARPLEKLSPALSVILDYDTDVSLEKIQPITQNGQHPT

Dopamine Receptor D4 [1] = molecular target: T1, Dopamine Receptor D4 (Homo sapiens, UniProt P21917); assay: NIMH-PDSP binding affinity at dopamine receptor subtype D4; settings: for D2/D4: ratio of Ki D2 to Ki D4
T1 sequence (P21917 1-419): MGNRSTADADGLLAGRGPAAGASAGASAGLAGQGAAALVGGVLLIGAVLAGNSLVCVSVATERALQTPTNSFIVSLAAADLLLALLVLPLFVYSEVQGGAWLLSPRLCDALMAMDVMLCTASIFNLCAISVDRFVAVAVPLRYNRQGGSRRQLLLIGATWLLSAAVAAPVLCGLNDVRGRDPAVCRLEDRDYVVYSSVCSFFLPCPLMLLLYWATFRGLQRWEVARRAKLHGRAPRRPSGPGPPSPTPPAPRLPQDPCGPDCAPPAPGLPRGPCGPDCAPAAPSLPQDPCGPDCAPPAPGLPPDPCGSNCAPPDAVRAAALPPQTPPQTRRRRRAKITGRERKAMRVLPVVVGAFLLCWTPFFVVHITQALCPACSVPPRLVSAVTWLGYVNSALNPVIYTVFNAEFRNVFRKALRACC

Dopamine Receptor D2 = Dopamine Receptor D2 (Homo sapiens, UniProt P14416); assay: NIMH-PDSP binding affinity at dopamine receptor subtype D2; settings: for primary assay inhibition at D2: primary assay threshold
Sequence of Dopamine Receptor D2 (P14416 whole entry): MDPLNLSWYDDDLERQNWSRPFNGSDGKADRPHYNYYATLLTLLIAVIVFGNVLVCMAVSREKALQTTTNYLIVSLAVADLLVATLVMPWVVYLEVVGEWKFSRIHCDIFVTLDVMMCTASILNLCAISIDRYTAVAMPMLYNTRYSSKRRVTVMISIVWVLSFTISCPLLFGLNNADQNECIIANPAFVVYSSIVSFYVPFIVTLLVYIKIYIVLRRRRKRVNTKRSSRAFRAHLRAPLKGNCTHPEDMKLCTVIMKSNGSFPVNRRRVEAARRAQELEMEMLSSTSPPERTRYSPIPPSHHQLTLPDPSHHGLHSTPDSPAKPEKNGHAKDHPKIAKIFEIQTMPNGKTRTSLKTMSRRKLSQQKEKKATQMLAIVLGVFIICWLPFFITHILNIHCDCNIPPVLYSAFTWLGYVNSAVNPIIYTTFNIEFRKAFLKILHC

Dopamine Receptor D4 [2] = molecular target: T1, Dopamine Receptor D4; settings: compounds 1-7, D2-like data; ref Previous publications from our lab; cited from earlier work
Dopamine Receptor D3 = Dopamine Receptor D3 (Homo sapiens, UniProt P35462); assay: NIMH-PDSP binding affinity at dopamine receptor subtype D3
Sequence of Dopamine Receptor D3 (P35462 whole entry): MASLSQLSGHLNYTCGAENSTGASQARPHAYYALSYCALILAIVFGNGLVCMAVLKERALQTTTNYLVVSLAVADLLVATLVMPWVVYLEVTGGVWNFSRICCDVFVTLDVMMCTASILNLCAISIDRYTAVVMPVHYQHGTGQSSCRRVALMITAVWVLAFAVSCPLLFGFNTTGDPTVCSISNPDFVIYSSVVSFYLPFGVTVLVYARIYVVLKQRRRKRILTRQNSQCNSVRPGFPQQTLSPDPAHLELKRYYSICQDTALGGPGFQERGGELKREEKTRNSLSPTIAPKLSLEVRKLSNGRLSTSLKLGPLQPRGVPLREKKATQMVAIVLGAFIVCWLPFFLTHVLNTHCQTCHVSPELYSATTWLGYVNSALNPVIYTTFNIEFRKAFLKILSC

Sequence of Dopamine Receptor D5 (P21918 whole entry): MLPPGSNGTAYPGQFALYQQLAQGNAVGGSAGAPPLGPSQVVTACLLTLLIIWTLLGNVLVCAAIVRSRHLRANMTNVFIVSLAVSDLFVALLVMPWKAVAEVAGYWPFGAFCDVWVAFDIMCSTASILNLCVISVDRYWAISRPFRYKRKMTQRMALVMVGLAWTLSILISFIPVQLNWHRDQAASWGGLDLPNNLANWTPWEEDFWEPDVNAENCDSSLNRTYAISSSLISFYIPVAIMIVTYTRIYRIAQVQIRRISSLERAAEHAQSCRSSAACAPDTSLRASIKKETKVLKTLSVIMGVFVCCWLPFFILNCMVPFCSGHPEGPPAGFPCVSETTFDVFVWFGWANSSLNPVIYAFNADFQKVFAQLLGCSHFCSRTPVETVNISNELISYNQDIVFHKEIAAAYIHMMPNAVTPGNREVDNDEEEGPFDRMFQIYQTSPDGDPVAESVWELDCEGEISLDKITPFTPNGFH

Clc1ccc(N2CCN(CCCc3cc4ccccc4o3)CC2)cc1 [Compound 24, 1-(3-(Benzofuran-2-yl)propyl)-4-(4-chlorophenyl)piperazine]
primary assay inhibition at D5 (Dopamine Receptor D5): MT (Missed primary assay threshold of 50% inhibition)

Clc1ccc(N2CC3CC2CN3CCCc2cc3ccccc3o2)cc1 (centres unmarked) [Compound 25, 2-(3-(Benzofuran-2-yl)propyl)-5-(4-chlorophenyl)-2,5-diazabicyclo[2.2.1]heptane]
primary assay inhibition at D1 (Dopamine Receptor D1): MT (Missed primary assay threshold of 50% inhibition)
D2/D4 (Dopamine Receptor D4 [1]): >4.2-
primary assay inhibition at D2 (Dopamine Receptor D2): MT (Missed primary assay threshold of 50% inhibition)
primary assay inhibition at D5 (Dopamine Receptor D5): MT (Missed primary assay threshold of 50% inhibition)

Fc1ccc2c(c1)CC(CCN1CCN(c3ccc(Cl)cc3)CC1)C2 (centres unmarked) [Compound 10, 1-(4-Chlorophenyl)-4-(2-(5-fluoro-2,3-dihydro-1H-inden-2-yl)ethyl)piperazine dihydrochloride]
primary assay inhibition at D5 (Dopamine Receptor D5): MT (Missed primary assay threshold of 50% inhibition)

Clc1ccc(N2CCN(CCCCc3nc4ccccc4o3)CC2)cc1 [Compound 20, 2-(4-(4-(4-Chlorophenyl)piperazin-1-yl)butyl)benzo[d]oxazole]
primary assay inhibition at D1 (Dopamine Receptor D1): MT (Missed primary assay threshold of 50% inhibition)
D2/D4 (Dopamine Receptor D4 [1]): >327
primary assay inhibition at D2 (Dopamine Receptor D2): MT (Missed primary assay threshold of 50% inhibition)
primary assay inhibition at D5 (Dopamine Receptor D5): MT (Missed primary assay threshold of 50% inhibition)

Clc1ccc(N2CCN(CCCOc3ccccc3)CC2)cc1 [Compound 6]
pKi ±SEM at the Dopamine Receptor Subtype D4 (Dopamine Receptor D4 [2]): 8.26±0.03

O=C1c2ccc(F)cc2CC1CCN1CCN(c2ccc(Cl)cc2)CC1 (centres unmarked) [Compound 8, 2-(2-(4-(4-Chlorophenyl)piperazin-1-yl)ethyl)-5-fluoro-indan-1-one hydrochloride]
primary assay inhibition at D5 (Dopamine Receptor D5): MT (Missed primary assay threshold of 50% inhibition)

O=C1c2ccccc2CC1CCN1CCN(c2ccc(Cl)cc2)CC1 (centres unmarked) [Compound 9, 2-{2-[4-(4-Chloro-phenyl)-piperazin-1-yl]-ethyl}-indan-1-one tosylate]
D2/D4 (Dopamine Receptor D4 [1]): >277
primary assay inhibition at D5 (Dopamine Receptor D5): MT (Missed primary assay threshold of 50% inhibition)

c1cnc(N2CCN(CCCCc3nc4ccccc4s3)CC2)nc1 [Compound 27]
primary assay inhibition at D1 (Dopamine Receptor D1): MT (Missed primary assay threshold of 50% inhibition)
primary assay inhibition at D5 (Dopamine Receptor D5): MT (Missed primary assay threshold of 50% inhibition)

Fc1ccc(OCCCN2CCN(c3ncccn3)CC2)cc1 [Compound 16a]
primary assay inhibition at D5 (Dopamine Receptor D5): MT (Missed primary assay threshold of 50% inhibition)

Cc1ccc(N2CCN(CCCOc3ccc(F)cc3)CC2)nc1 [Compound 15a, 1-(3-(4-Fluorophenoxy)propyl)-4-(5-methylpyridin-2-yl)piperazine]
Ki (Dopamine Receptor D4 [1]; pKi ±SEM at the Dopamine Receptor Subtype D4): 1.1 nM

Clc1ccc(N2CCN(CCc3cc4ccccc4o3)CC2)cc1 [Compound 23, 1-(2-(Benzofuran-2-yl)ethyl)-4-(4-chlorophenyl)piperazine]
primary assay inhibition at D1 (Dopamine Receptor D1): MT (Missed primary assay threshold of 50% inhibition)
primary assay inhibition at D3 (Dopamine Receptor D3; primary assay threshold): MT (Missed primary assay threshold of 50% inhibition)
primary assay inhibition at D2 (Dopamine Receptor D2): MT (Missed primary assay threshold of 50% inhibition)
primary assay inhibition at D5 (Dopamine Receptor D5): MT (Missed primary assay threshold of 50% inhibition)

Cc1ccc(N2CCN(CCCSc3ccc(F)cc3)CC2)nc1 [Compound 15b, 1-(3-((4-Fluorophenyl)thio)propyl)-4-(5-methylpyridin-2-yl)piperazine]
pKi ±SEM at the Dopamine Receptor Subtype D3 (Dopamine Receptor D3): 6.8±0.1
pKi ±SEM at the Dopamine Receptor Subtype D2 (Dopamine Receptor D2): 6±0.1
pKi ±SEM at the Dopamine Receptor Subtype D5 (Dopamine Receptor D5): 5.7±0.1

Clc1ccc(N2CCN(CCc3nc4ccccc4o3)CC2)cc1 [Compound 22, 2-(2-(4-(4-Chlorophenyl)piperazin-1-yl)ethyl)benzo[d]oxazole]
primary assay inhibition at D1 (Dopamine Receptor D1): MT (Missed primary assay threshold of 50% inhibition)
D2/D4 (Dopamine Receptor D4 [1]): >7.1
primary assay inhibition at D2 (Dopamine Receptor D2): MT (Missed primary assay threshold of 50% inhibition)
primary assay inhibition at D5 (Dopamine Receptor D5): MT (Missed primary assay threshold of 50% inhibition)

O=C(CCCN1CCN(c2ccc(Cl)cc2)CC1)c1ccc(F)cc1 [Compound 1]
D2/D4 (Dopamine Receptor D4 [1]): 14.5
D3/D4 (Dopamine Receptor D4 [1]; ratio of Ki D3 to Ki D4): 23.1

[O-][S+](CCCN1CCN(c2ccc(Cl)cc2)CC1)c1ccc(F)cc1 (centres unmarked) [Compound 2]
primary assay inhibition at D1 (Dopamine Receptor D1): MT (Missed primary assay threshold of 50% inhibition)
pKi ±SEM at the Dopamine Receptor Subtype D4 (Dopamine Receptor D4 [2]): 7.89±0.05
primary assay inhibition at D5 (Dopamine Receptor D5): MT (Missed primary assay threshold of 50% inhibition)

c1cnc(N2CCN(CCCc3nc4ccccc4s3)CC2)nc1 [Compound 28, 2-(3-(4-(Pyrimidin-2-yl)piperazin-1-yl)propyl)benzo[d]thiazole trihydrobromide]
inhibition of the appropriate radioligand at D1 (Dopamine Receptor D1; other DA subtypes): less than 50%
primary assay inhibition at D1 (Dopamine Receptor D1): MT (Missed primary assay threshold of 50% inhibition)
inhibition of the appropriate radioligand at D5 (Dopamine Receptor D5; other DA subtypes): less than 50%
primary assay inhibition at D5 (Dopamine Receptor D5): MT (Missed primary assay threshold of 50% inhibition)
